{"source": "ChEMBL document CHEMBL5331122", "about": "“Structure-Activity Relationship Study of Antimicrobial Peptide PE2 Delivered Novel Linear Derivatives with Potential of Eradicating Biofilms and Low Incidence of Drug Resistance” (J Med Chem, 2023)", "key": {"Staphylococcus aureus [1]": {"system": "Staphylococcus aureus", "assay": "Induction of membrane morphological changes in Staphylococcus aureus ATCC 25923 assessed as appearance of adherent bacterial cells at 4 times MIC measured at 0.5 to 2 hrs by SEM analysis", "assay_type": "functional, organism-based", "settings": "time 0.5-2 hrs"}, "Escherichia coli [2]": {"system": "Escherichia coli", "assay": "Antimicrobial activity against Escherichia coli ATCC 25922 assessed as reduction in survival bacterial growth in presence of chymotrypsin measured after 6 hrs", "assay_type": "functional, organism-based"}, "Staphylococcus aureus [3]": {"system": "Staphylococcus aureus", "assay": "Inhibition of biofilm formation in Staphylococcus aureus ATCC 25923 assessed as inhibition of biofilm formation at 1/2 times MIC incubated for 24 hrs by crystal violet staining based analysis", "assay_type": "functional, organism-based"}, "Klebsiella pneumoniae [4]": {"system": "Klebsiella pneumoniae", "assay": "Antibacterial activity against Klebsiella pneumoniae ATCC 700603 infected in BALB/c mouse pneumonia model at 5 to 10 mg/kg, ip measured at 4 to 12 hrs", "assay_type": "functional, organism-based", "settings": "dose 5-10 mg/kg, time 4-12 hrs"}, "Escherichia coli [5]": {"system": "Escherichia coli", "assay": "Antibacterial activity against rifampicin-resistant Escherichia coli ATCC 25922 assessed as reduction in bacterial growth incubated for 18 hrs by broth microdilution method", "assay_type": "functional"}, "Escherichia coli [6]": {"system": "Escherichia coli", "assay": "Additive antibacterial activity against gentamycin-resistant Escherichia coli ATCC 25922 incubated for 18 hrs by checkerboard assay", "assay_type": "functional, organism-based"}, "Cell membrane [7]": {"system": "Cell membrane", "assay": "Induction of outer membrane permeabilization in Escherichia coli ATCC 25922 assessed as increase in fluorescence intensity at 1 times MIC measured for 12 hrs by NPN uptake assay", "assay_type": "subcellular"}, "Klebsiella pneumoniae [8]": {"system": "Klebsiella pneumoniae", "assay": "Antibacterial activity against Klebsiella pneumoniae ATCC 700603 infected in BALB/c mouse pneumonia model assessed as reduction in lung bacterial load at 5 to 10 mg/kg, ip measured at 4 to 12 hrs", "assay_type": "functional, organism-based", "settings": "dose 5-10 mg/kg, time 4-12 hrs"}, "Escherichia coli [9]": {"system": "Escherichia coli", "assay": "Additive antibacterial activity against Escherichia coli ATCC 25922 assessed as bacterial growth inhibition incubated for 18 hrs in presence of gentamycin by checkerboard assay", "assay_type": "functional, organism-based"}, "Staphylococcus aureus [10]": {"system": "Staphylococcus aureus", "assay": "Additive antibacterial activity against Staphylococcus aureus ATCC 25923 assessed as bacterial growth inhibition incubated for 18 hrs in presence of rifampicin by checkerboard assay", "assay_type": "functional, organism-based"}, "Staphylococcus aureus [11]": {"system": "Staphylococcus aureus", "assay": "Antimicrobial activity against methicillin-resistant Staphylococcus aureus ATCC 33591 assessed as inhibition of microbial growth incubated for 18 hrs by broth microdilution analysis", "assay_type": "functional, organism-based", "settings": "ATCC 33591, 18 h"}, "Klebsiella pneumoniae [12]": {"system": "Klebsiella pneumoniae", "assay": "Antibacterial activity against Klebsiella pneumoniae ATCC 700603 infected in BALB/c mouse pneumonia model assessed as reduction in infiltration of inflammatory cells at 5 to 10 mg/kg, ip measured at 4 to 12 hrs by hematoxylin and eosin staining based analysis", "assay_type": "functional, organism-based", "settings": "dose 5-10 mg/kg, time 4-12 hrs"}, "Staphylococcus aureus [13]": {"system": "Staphylococcus aureus", "assay": "Bactericidal activity against Staphylococcus aureus ATCC 25923 assessed as inhibition of bacterial growth at 1/2 times MIC measured upto 360 mins by time-kill assay", "assay_type": "functional, organism-based"}, "Pseudomonas aeruginosa": {"system": "Pseudomonas aeruginosa", "assay": "Antibacterial activity against Pseudomonas aeruginosa ATCC 27853 assessed as bacterial growth inhibition incubated for 18 hrs by broth microdilution method", "assay_type": "functional"}, "Escherichia coli [14]": {"system": "Escherichia coli", "assay": "Antibacterial activity against Escherichia coli ATCC 25922 assessed as fold increase in MIC in presence of ZnCl2", "assay_type": "functional"}, "Escherichia coli [15]": {"system": "Escherichia coli", "assay": "Antibacterial activity against Escherichia coli ATCC 25922 assessed as fold increase in MIC in presence of NaCl", "assay_type": "functional"}, "Escherichia coli [16]": {"system": "Escherichia coli", "assay": "Inhibition of biofilm formation in Escherichia coli ATCC 25922 assessed as inhibition of biofilm formation incubated for 24 hrs by crystal violet staining based analysis", "assay_type": "functional, organism-based"}, "Staphylococcus aureus [17]": {"system": "Staphylococcus aureus", "assay": "Additive antibacterial activity against Staphylococcus aureus ATCC 25923 assessed as bacterial growth inhibition incubated for 18 hrs in presence of gentamycin by checkerboard assay", "assay_type": "functional, organism-based"}, "Escherichia coli [18]": {"system": "Escherichia coli", "assay": "Antibacterial activity against Escherichia coli ATCC 25922 assessed as bacterial growth inhibition incubated for 18 hrs by broth microdilution method", "assay_type": "functional"}, "Staphylococcus aureus [19]": {"system": "Staphylococcus aureus", "assay": "Antibacterial activity against rifampicin-resistant Staphylococcus aureus ATCC 25923 assessed as reduction in bacterial growth incubated for 18 hrs by broth microdilution method", "assay_type": "functional"}, "Erythrocyte": {"system": "Erythrocyte", "assay": "Hemolytic activity in mouse red blood cell assessed as hemolysis incubated for 1 hr", "assay_type": "toxicity, cell-based", "settings": "dose 4-256 µg/ml"}, "Escherichia coli [20]": {"system": "Escherichia coli", "assay": "Inhibition of biofilm formation in Escherichia coli ATCC 25922 assessed as inhibition of biofilm formation at 1 to 2 times MIC incubated for 24 hrs by crystal violet staining based analysis", "assay_type": "functional, organism-based"}, "Escherichia coli [21]": {"system": "Escherichia coli", "assay": "Bactericidal activity against Escherichia coli ATCC 25922 assessed as inhibition of bacterial growth at 1/2 times MIC measured at 180 mins by time-kill assay", "assay_type": "functional, organism-based"}, "Escherichia coli [22]": {"system": "Escherichia coli", "assay": "Antibacterial activity against gentamycin-resistant Escherichia coli ATCC 25922 assessed as reduction in bacterial growth incubated for 18 hrs by broth microdilution method", "assay_type": "functional"}, "Cell membrane [23]": {"system": "Cell membrane", "assay": "Induction of cell membrane damage in Escherichia coli ATCC 25922 at 2 times MIC after 0.5 to 2 hrs by propidium iodide staining based flow cytometer assay", "assay_type": "subcellular", "settings": "time 0.5-2 hrs"}, "Klebsiella pneumoniae [24]": {"system": "Klebsiella pneumoniae", "assay": "Antibacterial activity against Klebsiella pneumoniae ATCC 700603 infected in BALB/c mouse pneumonia model assessed as alveolar expansion at 5 to 10 mg/kg, ip measured at 4 to 12 hrs by hematoxylin and eosin staining based analysis", "assay_type": "functional, organism-based", "settings": "dose 5-10 mg/kg, time 4-12 hrs"}, "Staphylococcus aureus [25]": {"system": "Staphylococcus aureus", "assay": "Antibacterial activity against Staphylococcus aureus ATCC 25923 assessed as bacterial growth inhibition incubated for 18 hrs by broth microdilution method", "assay_type": "functional"}, "[26]": {"assay": "Acute toxicity in ip dosed Kunming mouse assessed as lethal dose measured upto 7 days", "assay_type": "organism-based", "settings": "in vivo, time < 7 day"}, "Enterococcus faecalis": {"system": "Enterococcus faecalis", "assay": "Antibacterial activity against Enterococcus faecalis ATCC 29212 assessed as bacterial growth inhibition incubated for 18 hrs by broth microdilution method", "assay_type": "functional"}, "Escherichia coli [27]": {"system": "Escherichia coli", "assay": "Bactericidal activity against Escherichia coli ATCC 25922 assessed as inhibition of bacterial growth at 0.5 to 2 times MIC by time-kill assay", "assay_type": "functional, organism-based", "settings": "time <= 360.0 min, TDE = time-dependent effect"}, "Escherichia coli [28]": {"system": "Escherichia coli", "assay": "Bactericidal activity against Escherichia coli ATCC 25922 assessed as inhibition of bacterial growth at 1 times MIC measured at 180 mins by time-kill assay", "assay_type": "functional, organism-based"}, "Staphylococcus aureus [29]": {"system": "Staphylococcus aureus", "assay": "Bactericidal activity against Staphylococcus aureus ATCC 25923 assessed as inhibition of bacterial growth at 0.5 to 2 times MIC measured at 120 mins by time-kill assay", "assay_type": "functional, organism-based"}, "[30]": {"assay": "Acute toxicity in Kunming mouse assessed as survival rate at 20 mg/kg, ip measured for 7 days", "assay_type": "organism-based", "settings": "in vivo, 168 h, time 7 day"}, "Escherichia coli [31]": {"system": "Escherichia coli", "assay": "Additive antibacterial activity against Escherichia coli ATCC 25922 assessed as bacterial growth inhibition incubated for 18 hrs in presence of rifampicin by checkerboard assay", "assay_type": "functional, organism-based"}, "Escherichia coli [32]": {"system": "Escherichia coli", "assay": "Antibacterial activity against Escherichia coli ATCC 25922 assessed as fold increase in MIC in presence of MgCl2", "assay_type": "functional"}, "Escherichia coli [33]": {"system": "Escherichia coli", "assay": "Bactericidal activity against Escherichia coli ATCC 25922 assessed as inhibition of bacterial growth at 0.5 to 2 times MIC measured at 120 mins by time-kill assay", "assay_type": "functional, organism-based"}, "Cell membrane [34]": {"system": "Cell membrane", "assay": "Induction of outer membrane permeabilization in Escherichia coli ATCC 25922 assessed as increase in fluorescence intensity at 1 to 4 times MIC measured for 12 hrs by NPN uptake assay", "assay_type": "subcellular"}}, "note": "Active and inactive are the calls of the source. The rule behind the calls is not given here."}
{"smiles": "CCCCCCCC(=O)N[C@@H](CCN)C(=O)N[C@H](C(=O)N[C@@H](CCN)C(=O)N[C@H](Cc1ccccc1)C(=O)N[C@@H](CC(C)C)C(=O)N[C@@H](CCN)C(=O)N[C@@H](C(=O)N[C@@H](CC(C)C)C(=O)N[C@@H](Cc1ccc(O)cc1)C(N)=O)C(C)C)[C@@H](C)CC", "values": [{"measurement": "Activity", "setting": "Staphylococcus aureus [1]", "value": "Active"}, {"measurement": "Activity", "setting": "Escherichia coli [2]", "value": "Active"}, {"measurement": "inhibition", "setting": "Staphylococcus aureus [3]", "value": "Active"}, {"measurement": "Activity", "setting": "Klebsiella pneumoniae [4]", "value": "Active"}, {"measurement": "MIC", "setting": "Escherichia coli [5]", "value": "< 8", "unit": "µg/mL"}, {"measurement": "Activity", "setting": "Escherichia coli [6]", "value": "Active"}, {"measurement": "Activity", "setting": "Cell membrane [7]", "value": "inactive"}, {"measurement": "Activity", "setting": "Klebsiella pneumoniae [8]", "value": "Active"}, {"measurement": "Activity", "setting": "Escherichia coli [9]", "value": "Active"}, {"measurement": "Activity", "setting": "Staphylococcus aureus [10]", "value": "Active"}, {"measurement": "EC50", "setting": "Staphylococcus aureus [11]", "value": 2.99, "unit": "µg/mL"}, {"measurement": "Activity", "setting": "Klebsiella pneumoniae [12]", "value": "Active"}, {"measurement": "Activity", "setting": "Staphylococcus aureus [13]", "value": "inactive"}, {"measurement": "MIC", "setting": "Pseudomonas aeruginosa", "value": 4, "unit": "µg/mL"}, {"measurement": "fold change (FC)", "setting": "Escherichia coli [14]", "value": "<=2"}, {"measurement": "fold change (FC)", "setting": "Escherichia coli [15]", "value": "<=2"}, {"measurement": "inhibition", "setting": "Escherichia coli [16]", "value": "Dose-Dependent Effect"}, {"measurement": "Activity", "setting": "Staphylococcus aureus [17]", "value": "Active"}, {"measurement": "MIC", "setting": "Escherichia coli [18]", "value": 4, "unit": "µg/mL"}, {"measurement": "MIC", "setting": "Staphylococcus aureus [19]", "value": "< 8", "unit": "µg/mL"}, {"measurement": "HC10", "setting": "Erythrocyte", "value": 128, "unit": "µg/mL"}, {"measurement": "inhibition", "setting": "Escherichia coli [20]", "value": "Active"}, {"measurement": "Activity", "setting": "Escherichia coli [21]", "value": "Active"}, {"measurement": "MIC", "setting": "Escherichia coli [22]", "value": 2, "unit": "µg/mL"}, {"measurement": "Activity", "setting": "Cell membrane [23]", "value": "Active"}, {"measurement": "Activity", "setting": "Klebsiella pneumoniae [24]", "value": "Active"}, {"measurement": "MIC", "setting": "Staphylococcus aureus [25]", "value": 8, "unit": "µg/mL"}, {"measurement": "LD50 at 168 h", "setting": "[26]; Kunming", "value": 33.6, "unit": "mg/kg"}, {"measurement": "LD", "setting": "[26]; ip, 168 h", "value": 80, "unit": "mg/kg"}, {"measurement": "MIC", "setting": "Enterococcus faecalis", "value": 16, "unit": "µg/mL"}, {"measurement": "Activity", "setting": "Escherichia coli [27]", "value": "Tde"}, {"measurement": "Activity", "setting": "Escherichia coli [28]", "value": "Active"}, {"measurement": "Activity", "setting": "Staphylococcus aureus [29]", "value": "Active"}, {"measurement": "Activity", "setting": "[30]", "value": "Non-Toxic"}, {"measurement": "Activity", "setting": "Escherichia coli [31]", "value": "Active"}, {"measurement": "fold change (FC)", "setting": "Escherichia coli [32]", "value": "<=2"}, {"measurement": "Activity", "setting": "Escherichia coli [33]", "value": "Active"}, {"measurement": "Activity", "setting": "Cell membrane [34]", "value": "Active"}]}
